Assay [1] in a line: caspase 3/7 activation in U251 cells, mechanism study for HRAS target identification, cell-based, luminescence, several timepoints, dry powder (AID 720615). The following applies: U251 HRAS cells, caspase 3/7 luminescence, apoptosis; at 35 µM (top of the series).
Assay [2] concerns U251 HRAS cells, caspase 3/7 luminescence, apoptosis. Described as above.

The source of these data is PubChem BioAssay AID720615 (Broad Institute, 2013).

Records with an inconclusive call do not appear. The source made the active and inactive calls. How the calls were made is not given here.

With `CCC(=O)N(c1ccc(OC)c(Cl)c1)C(C(=O)NCCc1ccccc1)c1cccs1` (stereo not given), the caspase 3/7 activation in assay [1] is 4.74% (inactive).

Take `COc1ccc(N(C(=O)CCl)C(C(=O)NCCc2ccccc2)c2cccs2)cc1Cl` (stereo not given): the AC40 in assay [2] was 5.7 µM; in assay [2] (measured here: timepoint 1 caspase activation), 14.7 µM; in assay [2] (measured here: timepoint 2 caspase activation), 1.45 µM; in assay [2] (measured here: timepoint 3 caspase activation) it was 0.948 µM.
